A word on the Kd: it is a measure of binding affinity in units of concentration. The EC50 is the concentration at which the effect is half-maximal. By IC50 is commonly meant the concentration that gives 50% inhibition.

The structures appear in SMILES notation. Structures can show the parent of a compound that is named as a salt. Where two headings read alike, the source gives them in different places.

The values that follow come from patent publication US20250228855A1, “PYRAZINAMIDE COMPOUNDS” (The General Hospital Corporation, priority 2022, published 2025).

One assay addresses PfcProRS (Plasmodium falciparum, UniProt Q8I5R7). Nature of the assay: TR-FRET ligand displacement assay with tracer MAT379, PfcProRS. Type of assay: binding. For orientation: In TR-FRET formats the signal depends on donor and acceptor labels being close together.
A further assay concerns the target T1, HsProRS (Homo sapiens, UniProt P07814).
T1 sequence (P07814 1007-1512 limits assumed): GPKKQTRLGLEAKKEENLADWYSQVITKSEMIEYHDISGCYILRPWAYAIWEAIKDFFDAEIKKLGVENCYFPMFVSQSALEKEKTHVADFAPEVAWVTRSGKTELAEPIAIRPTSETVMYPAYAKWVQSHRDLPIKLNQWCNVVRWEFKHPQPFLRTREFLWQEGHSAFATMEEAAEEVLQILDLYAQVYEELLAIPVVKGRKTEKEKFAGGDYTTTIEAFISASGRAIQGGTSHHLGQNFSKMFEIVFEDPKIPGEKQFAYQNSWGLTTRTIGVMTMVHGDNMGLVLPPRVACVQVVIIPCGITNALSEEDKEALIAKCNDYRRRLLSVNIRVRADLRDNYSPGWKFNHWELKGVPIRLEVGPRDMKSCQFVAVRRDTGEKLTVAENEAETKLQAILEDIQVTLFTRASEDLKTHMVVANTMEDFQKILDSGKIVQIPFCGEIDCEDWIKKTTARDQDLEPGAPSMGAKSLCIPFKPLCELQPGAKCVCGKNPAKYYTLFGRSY
Nature of the assay: TR-FRET ligand displacement assay with tracer MAT379, HsProRS. Type of assay: binding.

Another assay deals with P. falciparum Dd2-2D4. Nature of the assay: P. falciparum asexual blood stage growth assay, wild-type Dd2-2D4. Particulars: for EC50: DD2, 72 h, read-out: Dd2 (EC50 [nM]) wt.
The mark [1] stands for this setting: PfcProRS (KD [nM]) +proline, 100 μM Pro.
The mark [2] stands for this setting: no proline, no ATP, read-out: PfcProRS (KD [nM]) −.
Where [3] appears, read: read-out: HsProRS (KD [nM]) +proline, 100 μM Pro.
[4] abbreviates: no proline, no ATP, read-out: HsProRS (KD [nM]) −.
Where [5] appears, read: read-out: PfcProRS (KD [nM]) +proline, 100 μM Pro.

Chain of PfcProRS (Q8I5R7 whole entry): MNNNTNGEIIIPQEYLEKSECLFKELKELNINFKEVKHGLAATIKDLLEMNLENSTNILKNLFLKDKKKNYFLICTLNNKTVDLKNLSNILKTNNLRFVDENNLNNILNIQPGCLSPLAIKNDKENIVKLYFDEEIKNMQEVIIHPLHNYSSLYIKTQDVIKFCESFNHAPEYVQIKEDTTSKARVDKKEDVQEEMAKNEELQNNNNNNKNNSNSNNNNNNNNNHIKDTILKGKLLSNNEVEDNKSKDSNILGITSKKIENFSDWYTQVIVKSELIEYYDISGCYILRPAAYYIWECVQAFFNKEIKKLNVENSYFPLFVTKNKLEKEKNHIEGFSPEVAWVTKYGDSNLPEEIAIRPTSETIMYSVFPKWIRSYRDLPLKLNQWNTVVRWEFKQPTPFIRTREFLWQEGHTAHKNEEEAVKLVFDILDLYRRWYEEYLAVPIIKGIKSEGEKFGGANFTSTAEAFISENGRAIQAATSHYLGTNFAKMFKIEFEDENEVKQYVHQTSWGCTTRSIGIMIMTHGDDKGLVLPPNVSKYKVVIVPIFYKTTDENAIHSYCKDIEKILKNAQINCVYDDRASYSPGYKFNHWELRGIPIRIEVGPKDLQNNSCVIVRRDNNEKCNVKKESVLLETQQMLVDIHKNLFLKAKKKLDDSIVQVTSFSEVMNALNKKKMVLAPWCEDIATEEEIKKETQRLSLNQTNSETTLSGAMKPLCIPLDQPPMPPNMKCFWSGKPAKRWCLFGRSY
Method for P. falciparum Dd2-2D4: Asexual blood stage (ABS) P. falciparum parasites were treated with test compounds at varying concentrations for 72 h, followed by quantification of parasite growth by SYBR Green staining.
P. falciparum Asexual Blood Stage Growth Assay: This assay was performed as previously described.

`O=C(NC1Cc2ccccc2C1)c1nccnc1NC(=O)N1CCNCC1` [Compound 14, N-(2,3-dihydro-1H-inden-2-yl)-3-(piperazine-1-carboxamido)pyrazine-2-carboxamide dihydrochloride]: the Kd at PfcProRS (setting [1]) is 1630 nM; at PfcProRS (setting [2]), greater than 2860 nM; at HsProRS (HsProRS (KD [nM]) −) it was greater than 8720 nM; at HsProRS (setting [3]), 347 nM.

In the case of `Nc1nccnc1C(=O)NC1Cc2ccccc2C1` [Compound 45, 3-amino-N-(2,3-dihydro-1H-inden-2-yl)pyrazine-2-carboxamide], the Kd was greater than 2180 nM on PfcProRS (setting [1]), greater than 2860 nM on PfcProRS (setting [2]), greater than 5090 nM on HsProRS and greater than 8720 nM at HsProRS (setting [4]). Also, in the assay on P. falciparum Dd2-2D4 (Plasmodium falciparum), the EC50 is 13600 nM.

In the case of `NC1CCN(C(=O)Nc2nccnc2C(=O)NC2Cc3ccccc3C2)CC1` [Compound 8, 3-(4-aminopiperidine-1-carboxamido)-N-(2,3-dihydro-1H-inden-2-yl)pyrazine-2-carboxamide dihydrochloride], the Kd is greater than 2180 nM at PfcProRS (setting [1]), greater than 2860 nM on PfcProRS (setting [2]), greater than 5090 nM on HsProRS and greater than 8720 nM on HsProRS (HsProRS (KD [nM]) −).

On to `O=C(CCCCCNC(=S)NC1CCCCC1)NC1CCN(C(=O)Nc2nccnc2C(=O)NC2Cc3ccccc3C2)CC1` [MAT483], for which the Kd on PfcProRS (setting [2]) turned out to be 198 nM; on PfcProRS (setting [5]), 171 nM; at HsProRS (setting [4]), 1000 nM; at HsProRS (setting [3]), 3020 nM.

Consider `O=C(C[C@@H]1NCCC[C@@H]1OC(=O)NS(=O)(=O)N1CCN(C(=O)Nc2nccnc2C(=O)NC2Cc3ccccc3C2)CC1)Cn1cnc2cc(Br)c(Cl)cc2c1=O` (relative stereo) [iso-MAT436(40), cis-2-(3-(7-bromo-6-chloro-4-oxoquinazolin-3(4H)-yl)-2-oxopropyl)piperidin-3-yl ((4-((3-((2,3-dihydro-1H-inden-2-yl)carbamoyl)pyrazin-2-yl)carbamoyl)piperazin-1-yl)sulfonyl)carbamate], for which the “fold lower affinity / reduced biochemical potency relative to MAT436” value at PfcProRS is roughly 10 fold; at PfcProRS (listed as 40) it was 5-10 fold. Further, at HsProRS (setting [3]), the Kd worked out at 20.8 nM. In addition, the “fold less active than MAT436 against ABS P. falciparum” value with P. falciparum Dd2-2D4 amounted to 3 fold.

In the case of `NCC1CCN(C(=O)Nc2nccnc2C(=O)NC2Cc3ccccc3C2)CC1` [Compound 10, 3-(4-(aminomethyl)piperidine-1-carboxamido)-N-(2,3-dihydro-1H-inden-2-yl)pyrazine-2-carboxamide dihydrochloride], the Kd at PfcProRS (setting [1]) is greater than 2180 nM; at PfcProRS (setting [2]), greater than 2860 nM; at HsProRS (HsProRS (KD [nM]) −), greater than 8720 nM; at HsProRS (setting [3]) it was 1360 nM.

`O=C(NC1CCCCC1)c1nccnc1NC(=O)C1Cc2ccccc2C1` [Compound 49, N-cyclohexyl-3-(2,3-dihydro-1H-indene-2-carboxamido)pyrazine-2-carboxamide]: the Kd at PfcProRS (setting [1]) is greater than 2180 nM; on PfcProRS (setting [2]) it was greater than 2860 nM; on HsProRS, greater than 5090 nM; on HsProRS (setting [4]) it was greater than 8720 nM. Also, in the assay with P. falciparum Dd2-2D4 (Plasmodium falciparum), the EC50 was 6800 nM.

Turning to `O=C(NC1Cc2ccccc2C1)c1nccnc1NC(=O)N1CCC(CO)CC1` [Compound 11, N-(2,3-dihydro-1H-inden-2-yl)-3-(4-(hydroxymethyl)piperidine-1-carboxamido)pyrazine-2-carboxamide], the Kd on PfcProRS (setting [2]) came to 299 nM; at HsProRS (setting [4]) it was 265 nM. For the same molecule, in the assay with P. falciparum Dd2-2D4 (Plasmodium falciparum), the EC50 was found to be 712 nM.

With `CC(C)(C)OC(=O)NCCCCCC(=O)NCCCCCC(=O)NC1CCN(C(=O)Nc2nccnc2C(=O)NC2Cc3ccccc3C2)CC1` [MAT420], the Kd turned out to be 332 nM at PfcProRS (setting [5]); 292 nM on PfcProRS (read-out: PfcProRS (KD [nM]) −, no proline, no ATP); 781 nM on HsProRS (setting [3]); 415 nM on HsProRS (read-out: HsProRS (KD [nM]) −, no proline, no ATP).

With `NC(=O)Nc1nccnc1C(=O)NC1Cc2ccccc2C1` [Compound 23, N-(2,3-dihydro-1H-inden-2-yl)-3-ureidopyrazine-2-carboxamide], the Kd on PfcProRS (setting [1]) was greater than 2180 nM; on PfcProRS (setting [2]), greater than 2860 nM; on HsProRS it was greater than 5090 nM; on HsProRS (setting [4]), greater than 8720 nM. The EC50 with P. falciparum Dd2-2D4 (Plasmodium falciparum) came to 12100 nM.

For the molecule `O=C(NC1Cc2ccccc2C1)c1nccnc1NC(=O)C1CCOCC1` [Compound 18, N-(2,3-dihydro-1H-inden-2-yl)-3-(tetrahydro-2H-pyran-4-carboxamido)pyrazine-2-carboxamide], the Kd on PfcProRS (setting [1]) was 1590 nM; on PfcProRS (setting [2]), greater than 2860 nM; at HsProRS (setting [4]), 7400 nM; on HsProRS (setting [3]), 225 nM. The EC50 with P. falciparum Dd2-2D4 (Plasmodium falciparum) was greater than 20000 nM.

As for `CC(C)N(C(=O)Nc1nccnc1C(=O)NC1Cc2ccccc2C1)C(C)C` [Compound 5, N-(2,3-dihydro-1H-inden-2-yl)-3-(3,3-diisopropylureido)pyrazine-2-carboxamide], the Kd is greater than 2860 nM on PfcProRS (setting [2]) and greater than 8720 nM at HsProRS (setting [4]). The concentration for a half-maximal effect (EC50) in the assay on P. falciparum Dd2-2D4 (Plasmodium falciparum) was greater than 10000 nM.

For the molecule `O=C(NS(=O)(=O)N1CCN(C(=O)Nc2nccnc2C(=O)NC2Cc3ccccc3C2)CC1)OCCn1cnc2ccccc2c1=O` [MAT512, 2-(4-oxoquinazolin-3(4H)-yl)ethyl ((4-((3-((2,3-dihydro-1H-inden-2-yl)carbamoyl)pyrazin-2-yl)carbamoyl)piperazin-1-yl)sulfonyl)carbamate], the EC50 in the assay on P. falciparum Dd2-2D4 (Plasmodium falciparum) is greater than 10000 nM.

On to `O=C(O)CCCC(=O)Nc1nccnc1C(=O)NC1Cc2ccccc2C1` [Compound 22, 5-((3-((2,3-dihydro-1H-inden-2-yl)carbamoyl)pyrazin-2-yl)amino)-5-oxopentanoic acid], for which the Kd at PfcProRS (setting [1]) was greater than 2180 nM; on PfcProRS (setting [2]), greater than 2860 nM; at HsProRS it was greater than 5090 nM; at HsProRS (setting [4]), greater than 8720 nM. Besides, the EC50 with P. falciparum Dd2-2D4 (Plasmodium falciparum) amounted to 12300 nM.

On to `O=C(NC1Cc2ccccc2C1)c1nccnc1NS(=O)(=O)C1CCCCC1` [Compound 50, 3-(cyclohexanesulfonamido)-N-(2,3-dihydro-1H-inden-2-yl)pyrazine-2-carboxamide], for which the Kd was greater than 2180 nM on PfcProRS (setting [1]), greater than 2860 nM on PfcProRS (setting [2]), greater than 5090 nM at HsProRS and greater than 8720 nM on HsProRS (setting [4]). For the same molecule, the EC50 with P. falciparum Dd2-2D4 (Plasmodium falciparum) was 13000 nM.

`O=C(NS(=O)(=O)NC1CCN(C(=O)Nc2nccnc2C(=O)NC2Cc3ccccc3C2)CC1)OCCn1cnc2ccccc2c1=O` [MAT513, 2-(4-oxoquinazolin-3(4H)-yl)ethyl (N-(1-((3-((2,3-dihydro-1H-inden-2-yl)carbamoyl)pyrazin-2-yl)carbamoyl)piperidin-4-yl)sulfamoyl)carbamate]: the Kd at PfcProRS (absence of proline, read-out: KD for PfcProRS) was 20.3 nM; at HsProRS (absence of proline, read-out: KD for HsProRS) it was 157 nM. For the same molecule, the EC50 in the assay on P. falciparum Dd2-2D4 (Plasmodium falciparum) worked out at 4830 nM. In the assay on P. falciparum Dd2-2D4 (Plasmodium falciparum, DD2, read-out: IC50 for Dd2-2D4), the half-maximal inhibitory concentration (IC50) worked out at 4830 nM.

On to `Nc1ncnc2c1ncn2[C@@H]1O[C@H](COS(=O)(=O)NC(=O)OC2CCCNC2CC(=O)Cn2cnc3cc(Br)c(Cl)cc3c2=O)[C@@H](O)[C@H]1O` (stereo partly drawn) [MAT430, ((2R,3S,4R,5R)-5-(6-amino-9H-purin-9-yl)-3,4-dihydroxytetrahydrofuran-2-yl)methy ((((2S,3R)-2-(3-(7-bromo-6-chloro-4-oxoquinazolin-3(4H)-yl)-2-oxopropyl)piperidin-3-yl)oxy)carbonyl)sulfamate], for which the Kd on PfcProRS (setting [2]) turned out to be 5.01 nM; on HsProRS (setting [4]), 18.4 nM.

In the case of `CC(C)(C)OC(=O)NC1CCN(C(=O)Nc2nccnc2C(=O)NC2Cc3ccccc3C2)CC1` [Compound 7, tert-butyl (1-((3-((2,3-dihydro-1H-inden-2-yl)carbamoyl)pyrazin-2-yl)carbamoyl)piperidin-4-yl)carbamate], the Kd turned out to be 22.1 nM at HsProRS (setting [4]) and 34.8 nM at HsProRS (setting [3]).

`O=c1[nH]c2nccnc2c(=O)n1C1Cc2ccccc2C1` [Compound 47, 3-(2,3-dihydro-1H-inden-2-yl)pteridine-2,4(1H,3H)-dione]: the Kd at PfcProRS (setting [1]) is greater than 2180 nM; at PfcProRS (setting [2]), greater than 2860 nM; at HsProRS (setting [4]) it was greater than 8720 nM. Besides, in the assay with P. falciparum Dd2-2D4 (Plasmodium falciparum), the concentration for a half-maximal effect (EC50) is 11100 nM.

For the molecule `Nc1nccnc1C(=O)NC1CCCCC1` [Compound 48, 3-amino-N-cyclohexylpyrazine-2-carboxamide], the Kd at PfcProRS (setting [1]) was greater than 2180 nM; at PfcProRS (setting [2]), greater than 2860 nM; on HsProRS, greater than 5090 nM; on HsProRS (setting [4]), greater than 8720 nM. Moreover, the EC50 in the assay on P. falciparum Dd2-2D4 (Plasmodium falciparum) was 8740 nM.

As for `CC(C)(C)OC(=O)N1CCN(C(=O)Nc2nccnc2C(=O)NC2Cc3ccccc3C2)CC1` [Compound 13, tert-butyl 4-((3-((2,3-dihydro-1H-inden-2-yl)carbamoyl)pyrazin-2-yl)carbamoyl)piperazine-1-carboxylate], the Kd at PfcProRS (setting [1]) was greater than 2180 nM; at PfcProRS (setting [2]) it was greater than 2860 nM; on HsProRS, greater than 5090 nM; on HsProRS (setting [4]), greater than 8720 nM.

With `NCCCCCC(=O)NCCCCCC(=O)NC1CCN(C(=O)Nc2nccnc2C(=O)NC2Cc3ccccc3C2)CC1` [MAT421], the Kd on PfcProRS (setting [2]) came to 2280 nM; at PfcProRS (setting [5]), 1960 nM; at HsProRS (setting [4]) it was 2340 nM; at HsProRS (setting [3]), 2260 nM.
